The values below come from US20140235616A1, “PYRAZOLOQUINOLINONE DERIVATIVES, PREPARATION THEREOF AND THERAPEUTIC USE THEREOF” (SANOFI, priority 2011, published 2014).

T1 sequence (P50579 whole entry): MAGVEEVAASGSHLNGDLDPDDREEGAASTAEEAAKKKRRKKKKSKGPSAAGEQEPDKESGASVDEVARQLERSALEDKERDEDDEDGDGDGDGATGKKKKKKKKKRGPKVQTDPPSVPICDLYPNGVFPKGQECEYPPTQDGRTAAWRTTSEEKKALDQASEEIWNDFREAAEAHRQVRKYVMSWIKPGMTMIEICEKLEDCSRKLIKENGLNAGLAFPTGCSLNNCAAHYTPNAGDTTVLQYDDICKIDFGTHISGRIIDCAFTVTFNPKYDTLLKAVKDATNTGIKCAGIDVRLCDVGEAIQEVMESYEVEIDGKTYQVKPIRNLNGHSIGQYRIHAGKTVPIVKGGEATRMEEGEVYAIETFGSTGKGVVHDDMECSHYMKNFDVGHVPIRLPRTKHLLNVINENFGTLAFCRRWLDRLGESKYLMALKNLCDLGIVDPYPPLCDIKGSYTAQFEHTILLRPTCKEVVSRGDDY

The test addresses T1, human MetAP2 (Homo sapiens, UniProt P50579).
T1 construct: made in house; host or cells: Sf9 insect cells (baculovirus)
As to the kind of experiment: MetAP2 enzymatic screening test (isolated enzyme, Met-Pro-Arg-pNa substrate, absorbance at 405 nm). The class given is biochemical. The settings on record: read-out: % inhibition hMETAP2 at 100 nM. The protocol:
The compounds according to the invention underwent biochemical studies in order to determine their capacity to inhibit the enzyme methionine-aminopeptidase2 (enzymatic test on isolated enzyme).
MetAP2 Enzymatic Screening Test
For the enzymatic test, human MetAP2 protein was obtained from a culture supernatant of insect cells (sf9) infected with MetAP2 recombinant baculovirus.
Before performing the experiment, dialysis of the MetAP2 supernatant is performed over 24 hours at 4° C. in a buffer (10 mM Hepes, 100 mM KCl, 10% glycerol, pH 7.4) in the presence of EDTA (1 mM) over the first 12 hours.
The dialysis supernatant is recovered and manganese, used as cofactor, is added to a final concentration of 300 μM.
The enzymatic test is a test in two steps.
Consequently, the second step consists in reacting the peptides cleaved in the preceding step with a second peptidase in order to release the chromophore.
In the case of `O=c1c2cn[nH]c2c2ccc(-c3cccc(F)n3)cc2n1CC(F)(F)F` [Compound 163, 7-(6-fluoropyrid-2-yl)-5-(2,2,2-trifluoroethyl)-1,5-dihydro-4H-pyrazolo[4,3-c]quinolin-4-one], the inhibition (usually how much of the control response was suppressed) at 0.1 µM was determined as 38%.
The figure for `O=c1c2cn[nH]c2c2ccc(-c3ccc(C(O)c4ccccc4)cn3)cc2n1CC(F)(F)F` (centres unmarked) [Compound 152, 7-[5-(hydroxyphenylmethyl)pyrid-2-yl]-5-(2,2,2-trifluoroethyl)-1,5-dihydro-4H-pyrazolo[4,3-c]quinolin-4-one] is 41%; for `O=c1c2cn[nH]c2c2ccc(-c3ccccc3S(=O)(=O)N3CCCC3)cc2n1CC(F)(F)F` [Compound 133, 7-[2-(pyrrolidine-1-sulfonyl)phenyl]-5-(2,2,2-trifluoroethyl)-1,5-dihydro-4H-pyrazolo[4,3-c]quinolin-4-one] it is 45%.
The figure for `CCc1nc(-c2ccccc2-c2ccc3c4[nH]ncc4c(=O)n(CC(F)(F)F)c3c2)no1` [Compound 150, 7-[2-(5-ethyl-[1,2,4]oxadiazol-3-yl)phenyl]-5-(2,2,2-trifluoroethyl)-1,5-dihydro-4H-pyrazolo[4,3-c]quinolin-4-one] is 42%.
The result for `CCn1c(=O)c2cn[nH]c2c2ccc(-c3cnc(N4CCNCC4)nc3)cc21` [Compound 20, 5-ethyl-7-(2-piperazin-1-ylpyrimidin-5-yl)-1,5-dihydro-4H-pyrazolo[4,3-c]quinolin-4-one] reads 70%; that for `O=c1c2cn[nH]c2c2ccc(-c3cccc(Cl)c3O)cc2n1CC(F)(F)F` [Compound 53, 7-(3-chloro-2-hydroxyphenyl)-5-(2,2,2-trifluoroethyl)-1,5-dihydro-4H-pyrazolo[4,3-c]quinolin-4-one], 43%; that for `CC(C)c1ncncc1-c1ccc2c3[nH]ncc3c(=O)n(CC(F)(F)F)c2c1` [Compound 162, 7-(4-isopropylpyrimidin-5-yl)-5-(2,2,2-trifluoroethyl)-1,5-dihydro-4H-pyrazolo[4,3-c]quinolin-4-one], 38%.
For the compound `CCn1c(=O)c2cn[nH]c2c2ccc(-c3ccc(F)c(C(=O)NC)c3)cc21` [Compound 27, 5-(5-ethyl-4-oxo-4,5-dihydro-1H-pyrazolo[4,3-c]quinolin-7-yl)-2-fluoro-N-methylbenzamide], the inhibition at 0.1 µM came to 67%.
The figure for `CCn1c(=O)c2cn[nH]c2c2ccc(-c3cnc(N4CCN(C)CC4)nc3)cc21` [Compound 31, 5-ethyl-7-[2-(4-methylpiperazin-1-yl)pyrimidin-5-yl]-1,5-dihydro-4H-pyrazolo[4,3-c]quinolin-4-one] is 64%; for `CCn1c(=O)c2cn[nH]c2c2ccc(-c3ccc(F)c(C(N)=O)c3)cc21` [Compound 36, 5-(5-ethyl-4-oxo-4,5-dihydro-1H-pyrazolo[4,3-c]quinolin-7-yl)-2-fluoro-benzamide] it is 61%; for `CC(=O)NCc1ccccc1-c1ccc2c3[nH]ncc3c(=O)n(CC(F)(F)F)c2c1` [Compound 151, N-{2-[4-oxo-5-(2,2,2-trifluoroethyl)-4,5-dihydro-1H-pyrazolo[4,3-c]quinolin-7-yl]benzyl}acetamide] it is 41%.
The result for `Cc1cc(-n2cnnc2)ncc1-c1ccc2c3[nH]ncc3c(=O)n(CC(F)(F)F)c2c1` [Compound 140, 7-(4-methyl-6-[1,2,4]triazol-4-ylpyrid-3-yl)-5-(2,2,2-trifluoroethyl)-1,5-dihydro-4H-pyrazolo[4,3-c]quinolin-4-one] reads 44%.
The figure for `CCn1c(=O)c2cn[nH]c2c2ccc(-c3ccc(C(=O)N4CCNCC4)cc3)cc21` [Compound 18, 5-ethyl-7-[4-(piperazine-1-carbonyl)phenyl]-1,5-dihydro-4H-pyrazolo[4,3-c]quinolin-4-one] is 72%; for `Cc1cc(N)ncc1-c1ccc2c3[nH]ncc3c(=O)n(CC(F)(F)F)c2c1` [Compound 137, 7-(6-amino-4-methylpyrid-3-yl)-5-(2,2,2-trifluoroethyl)-1,5-dihydro-4H-pyrazolo[4,3-c]quinolin-4-one] it is 45%.
For `CCn1c(=O)c2cn[nH]c2c2ccc(-c3ccc(N)cc3C)cc21` [Compound 24, 7-(4-amino-2-methylphenyl)-5-ethyl-1,5-dihydro-4H-pyrazolo[4,3-c]quinolin-4-one], the inhibition at 0.1 µM is 67%.
The figure for `COc1ccc(-c2ccc3c4[nH]ncc4c(=O)n(CC(F)(F)F)c3c2)cn1` [Compound 128, 7-(6-methoxypyrid-3-yl)-5-(2,2,2-trifluoroethyl)-1,5-dihydro-4H-pyrazolo[4,3-c]quinolin-4-one] is 41%; for `Nc1ncc(F)cc1-c1ccc2c3[nH]ncc3c(=O)n(CC(F)(F)F)c2c1` [Compound 132, 7-(2-amino-5-fluoropyrid-3-yl)-5-(2,2,2-trifluoroethyl)-1,5-dihydro-4H-pyrazolo[4,3-c]quinolin-4-one] it is 46%; for `COc1ccc(-c2ccc3c4[nH]ncc4c(=O)n(CC(F)(F)F)c3c2)c(CO)c1` [Compound 49, 7-(2-hydroxymethyl-4-methoxyphenyl)-5-(2,2,2-trifluoroethyl)-1,5-dihydro-4H-pyrazolo[4,3-c]quinolin-4-one] it is 45%.
The figure for `CCn1c(=O)c2cn[nH]c2c2ccc(-c3cccc(C(=O)NCCN(C)C)c3)cc21` [Compound 37, N-(2-dimethylaminoethyl)-3-(5-ethyl-4-oxo-4,5-dihydro-1H-pyrazolo[4,3-c]quinolin-7-yl)benzamide] is 60%.
The figure for `COC(=O)c1ccccc1-c1ccc2c3[nH]ncc3c(=O)n(CC(F)(F)F)c2c1` [Compound 156, methyl 2-[4-oxo-5-(2,2,2-trifluoroethyl)-4,5-dihydro-1H-pyrazolo[4,3-c]quinolin-7-yl]benzoate] is 41%; for `CCn1c(=O)c2cn[nH]c2c2ccc(-c3ccc(C(C)N4CCCC4)cc3)cc21` (centres unmarked) [Compound 22, 5-ethyl-7-[4-(1-pyrrolidin-1-yl-ethyl)phenyl]-1,5-dihydro-4H-pyrazolo[4,3-c]quinolin-4-one] it is 69%.
As to `CCn1c(=O)c2cn[nH]c2c2ccc(-c3ccc(C(N)=O)c(Cl)c3)cc21` [Compound 33, 2-chloro-4-(5-ethyl-4-oxo-4,5-dihydro-1H-pyrazolo[4,3-c]quinolin-7-yl)benzamide], the inhibition at 0.1 µM amounted to 62%.
The figure for `CC(C)NS(=O)(=O)c1ccccc1-c1ccc2c3[nH]ncc3c(=O)n(CC(F)(F)F)c2c1` [Compound 134, N-isopropyl-2-[4-oxo-5-(2,2,2-trifluoroethyl)-4,5-dihydro-1H-pyrazolo[4,3-c]quinolin-7-yl]benzenesulfonamide] is 45%; for `CCn1c(=O)c2cn[nH]c2c2ccc(-c3cc(OC)ccc3F)cc21` [Compound 28, 5-ethyl-7-(2-fluoro-5-methoxyphenyl)-1,5-dihydro-4H-pyrazolo[4,3-c]quinolin-4-one] it is 67%; for `Cc1cc(-c2ccc3c4[nH]ncc4c(=O)n(CC(F)(F)F)c3c2)cnc1-n1cnnc1` [Compound 139, 7-(5-methyl-6-[1,2,4]triazol-4-ylpyrid-3-yl)-5-(2,2,2-trifluoroethyl)-1,5-dihydro-4H-pyrazolo[4,3-c]quinolin-4-one] it is 44%.
For `O=c1c2cn[nH]c2c2ccc(-c3cccc(O)c3)cc2n1CC(F)(F)F` [Compound 40, 7-(3-hydroxyphenyl)-5-(2,2,2-trifluoroethyl)-1,5-dihydro-4H-pyrazolo[4,3-c]quinolin-4-one], the inhibition at 0.1 µM worked out at 40%.
The result for `COc1ccc(-c2ccc3c4[nH]ncc4c(=O)n(CC(F)(F)F)c3c2)c(C)n1` [Compound 138, 7-(6-methoxy-2-methylpyrid-3-yl)-5-(2,2,2-trifluoroethyl)-1,5-dihydro-4H-pyrazolo[4,3-c]quinolin-4-one] reads 44%.
The figure for `COc1cc(-c2ccc3c4[nH]ncc4c(=O)n(CC(F)(F)F)c3c2)ccn1` [Compound 158, 7-(2-methoxypyrid-4-yl)-5-(2,2,2-trifluoroethyl)-1,5-dihydro-4H-pyrazolo[4,3-c]quinolin-4-one] is 40%; for `O=c1c2cn[nH]c2c2ccc(-c3ccnc(Cl)c3F)cc2n1CC(F)(F)F` [Compound 41, 7-(2-chloro-3-fluoropyrid-4-yl)-5-(2,2,2-trifluoroethyl)-1,5-dihydro-4H-pyrazolo[4,3-c]quinolin-4-one] it is 40%; for `CCn1c(=O)c2cn[nH]c2c2ccc(-c3ccc(CNC(C)=O)cc3)cc21` [Compound 38, N-[4-(5-ethyl-4-oxo-4,5-dihydro-1H-pyrazolo[4,3-c]quinolin-7-yl)benzyl]acetamide] it is 60%.
The figure for `CN(C)CCOc1cccc(-c2ccc3c4[nH]ncc4c(=O)n(CC(F)(F)F)c3c2)c1` [Compound 155, 7-[3-(2-dimethylaminoethoxy)phenyl]-5-(2,2,2-trifluoroethyl)-1,5-dihydro-4H-pyrazolo[4,3-c]quinolin-4-one] is 41%; for `CCN(CC)S(=O)(=O)c1ccccc1-c1ccc2c3[nH]ncc3c(=O)n(CC(F)(F)F)c2c1` [Compound 136, N,N-diethyl-2-[4-oxo-5-(2,2,2-trifluoroethyl)-4,5-dihydro-1H-pyrazolo[4,3-c]quinolin-7-yl]benzenesulfonamide] it is 45%.
